# Test results from patent publication US20130261241A1, “METHODS FOR CONTROLLING WATER AMOUNT IN A POLYMER COMPOSITION OR SUBSTRATE” (Bendiner Technologies, LLC, priority 2009, published 2013).
smiles,measurement,setting,value
"C/C=C/C=C/C(=O)[O-].[K+] [Potassium sorbate, potassium sorbate]",change in zeta potential,"as potassium sorbate concentration is increased (0.0001% to 10%), no added sodium chloride",less negative
same,effect on the zeta potential,concentrations below approximately 0.01%,no effect
